Test results taken from ChEMBL document CHEMBL1133363, “Discovery and evaluation of potent, tyrosine-based alpha4beta1 integrin antagonists” (Bioorg Med Chem Lett, 2000).
Square brackets hold non-standard residues; d marks the D form. Peptide text beside a SMILES is read from it. Thz = O=C(O)[C@@H]1CSCN1

How the values were obtained:
[1] = target: T1, Integrin alpha-4/beta-1 (Homo sapiens, UniProt P05556+P13612); test: Affinity for alpha4-beta1 integrin from HL60 cell lysate; type: cell-based, HL-60
[2] = target: T1, Integrin alpha-4/beta-1; test: Inhibition of alpha4-beta1 VCAM binding in Jurkat cell adhesion assay; type: cell-based
[3] = Half life stability of compound was evaluated in rat plasma; type: ADME, organism-based
[4] = target: Intercellular adhesion molecule (ICAM-1), Integrin alpha-L/beta-2 (Homo sapiens, UniProt P05107+P05362+P20701); test: Inhibition of alphaL-beta2 mediated cell adhesion; type: protein-complex assay
[5] = target: Integrin alpha-M/beta-2 (Homo sapiens, UniProt P05107+P11215); test: Inhibition of alphaM-beta2 mediated cell adhesion; type: protein-complex assay
[6] = target: Integrin alpha-V/beta-3 (Homo sapiens, UniProt P05106+P06756); test: Inhibition of alphaV-beta3 mediated cell adhesion; type: protein-complex assay
[7] = target: T2, Integrin alpha-4/beta-7 (Homo sapiens, UniProt P13612+P26010); test: Inhibition of alpha4-beta7 integrin mediated cell adhesion; type: protein-complex assay
T2 sequence (P13612 whole entry): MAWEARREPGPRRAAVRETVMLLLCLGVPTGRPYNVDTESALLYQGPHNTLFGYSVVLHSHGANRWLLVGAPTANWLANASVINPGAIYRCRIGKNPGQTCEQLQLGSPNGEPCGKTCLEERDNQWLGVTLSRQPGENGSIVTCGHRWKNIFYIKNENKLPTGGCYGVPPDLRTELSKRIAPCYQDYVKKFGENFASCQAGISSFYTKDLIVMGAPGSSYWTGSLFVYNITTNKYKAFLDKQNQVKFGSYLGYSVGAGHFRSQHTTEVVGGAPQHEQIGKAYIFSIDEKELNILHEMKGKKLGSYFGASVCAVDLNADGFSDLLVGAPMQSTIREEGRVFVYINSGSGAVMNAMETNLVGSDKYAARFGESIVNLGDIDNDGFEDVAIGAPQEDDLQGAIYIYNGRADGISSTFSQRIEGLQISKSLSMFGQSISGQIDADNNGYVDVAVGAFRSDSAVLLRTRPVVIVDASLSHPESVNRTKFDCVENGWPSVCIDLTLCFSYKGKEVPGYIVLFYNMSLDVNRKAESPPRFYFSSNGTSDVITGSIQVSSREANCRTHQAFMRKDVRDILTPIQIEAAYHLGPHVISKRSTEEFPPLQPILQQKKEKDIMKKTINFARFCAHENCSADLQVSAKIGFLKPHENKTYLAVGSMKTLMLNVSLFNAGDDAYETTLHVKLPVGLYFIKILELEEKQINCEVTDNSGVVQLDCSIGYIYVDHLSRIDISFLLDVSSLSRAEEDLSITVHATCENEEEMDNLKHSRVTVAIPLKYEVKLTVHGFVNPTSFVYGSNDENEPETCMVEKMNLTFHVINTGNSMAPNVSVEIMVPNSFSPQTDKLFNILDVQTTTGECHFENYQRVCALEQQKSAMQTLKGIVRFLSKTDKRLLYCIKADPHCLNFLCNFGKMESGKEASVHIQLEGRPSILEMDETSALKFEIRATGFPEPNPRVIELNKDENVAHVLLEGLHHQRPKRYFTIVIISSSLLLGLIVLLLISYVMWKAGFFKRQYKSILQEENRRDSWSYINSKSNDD
T2 sequence (P26010 whole entry): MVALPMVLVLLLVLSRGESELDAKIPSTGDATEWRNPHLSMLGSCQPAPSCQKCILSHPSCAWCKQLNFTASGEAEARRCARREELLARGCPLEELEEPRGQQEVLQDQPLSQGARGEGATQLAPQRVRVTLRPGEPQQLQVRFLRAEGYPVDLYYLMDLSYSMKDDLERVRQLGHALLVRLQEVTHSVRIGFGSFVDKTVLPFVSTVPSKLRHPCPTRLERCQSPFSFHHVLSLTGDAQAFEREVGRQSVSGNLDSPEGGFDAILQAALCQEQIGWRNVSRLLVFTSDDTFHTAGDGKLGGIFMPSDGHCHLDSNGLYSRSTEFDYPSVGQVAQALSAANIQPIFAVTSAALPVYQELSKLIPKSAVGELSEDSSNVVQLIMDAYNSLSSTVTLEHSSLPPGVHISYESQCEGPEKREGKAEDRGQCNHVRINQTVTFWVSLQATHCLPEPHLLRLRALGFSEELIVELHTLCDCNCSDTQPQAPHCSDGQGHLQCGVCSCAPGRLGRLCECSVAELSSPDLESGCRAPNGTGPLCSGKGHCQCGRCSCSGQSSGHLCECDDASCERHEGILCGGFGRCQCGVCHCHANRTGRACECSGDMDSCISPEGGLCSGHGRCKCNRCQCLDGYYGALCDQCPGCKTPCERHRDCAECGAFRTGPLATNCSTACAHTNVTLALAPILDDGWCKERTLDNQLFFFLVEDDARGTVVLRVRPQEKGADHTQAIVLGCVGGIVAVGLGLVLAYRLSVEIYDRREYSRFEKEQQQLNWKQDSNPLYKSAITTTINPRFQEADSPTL

[8] = target: Integrin alpha-5/beta-1 (Homo sapiens, UniProt P05556+P08648); test: Inhibition of alpha5-beta1 integrin mediated cell adhesion; type: protein-complex assay
[9] = target: Integrin alpha-IIb/beta-3 (Homo sapiens, UniProt P05106+P08514); test: The antagonist activity was evaluated by alphaIlb-beta3 cell assay; type: functional

T1 sequence (P05556 whole entry, one chain of several): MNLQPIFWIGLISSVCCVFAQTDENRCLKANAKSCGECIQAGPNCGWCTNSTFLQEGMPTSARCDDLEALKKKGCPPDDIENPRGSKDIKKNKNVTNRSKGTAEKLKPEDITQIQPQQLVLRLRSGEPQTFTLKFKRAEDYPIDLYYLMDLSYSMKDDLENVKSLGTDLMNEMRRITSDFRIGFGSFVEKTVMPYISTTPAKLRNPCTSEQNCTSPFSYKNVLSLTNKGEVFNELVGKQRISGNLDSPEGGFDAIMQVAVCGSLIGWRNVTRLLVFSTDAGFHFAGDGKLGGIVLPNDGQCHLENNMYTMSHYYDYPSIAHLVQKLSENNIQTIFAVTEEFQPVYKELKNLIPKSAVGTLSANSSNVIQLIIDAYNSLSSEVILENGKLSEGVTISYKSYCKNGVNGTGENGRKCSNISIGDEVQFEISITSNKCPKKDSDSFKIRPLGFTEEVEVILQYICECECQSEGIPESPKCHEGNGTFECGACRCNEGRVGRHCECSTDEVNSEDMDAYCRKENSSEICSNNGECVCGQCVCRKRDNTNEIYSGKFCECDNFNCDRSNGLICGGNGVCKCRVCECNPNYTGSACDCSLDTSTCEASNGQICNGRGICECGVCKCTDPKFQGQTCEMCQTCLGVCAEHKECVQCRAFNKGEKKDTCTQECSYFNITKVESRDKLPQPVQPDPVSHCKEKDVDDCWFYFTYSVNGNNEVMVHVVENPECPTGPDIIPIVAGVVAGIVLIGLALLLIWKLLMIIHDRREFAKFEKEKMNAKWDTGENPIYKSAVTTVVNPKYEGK
Integrin alpha-5/beta-1, sequence (P05556 21-798 limits assumed): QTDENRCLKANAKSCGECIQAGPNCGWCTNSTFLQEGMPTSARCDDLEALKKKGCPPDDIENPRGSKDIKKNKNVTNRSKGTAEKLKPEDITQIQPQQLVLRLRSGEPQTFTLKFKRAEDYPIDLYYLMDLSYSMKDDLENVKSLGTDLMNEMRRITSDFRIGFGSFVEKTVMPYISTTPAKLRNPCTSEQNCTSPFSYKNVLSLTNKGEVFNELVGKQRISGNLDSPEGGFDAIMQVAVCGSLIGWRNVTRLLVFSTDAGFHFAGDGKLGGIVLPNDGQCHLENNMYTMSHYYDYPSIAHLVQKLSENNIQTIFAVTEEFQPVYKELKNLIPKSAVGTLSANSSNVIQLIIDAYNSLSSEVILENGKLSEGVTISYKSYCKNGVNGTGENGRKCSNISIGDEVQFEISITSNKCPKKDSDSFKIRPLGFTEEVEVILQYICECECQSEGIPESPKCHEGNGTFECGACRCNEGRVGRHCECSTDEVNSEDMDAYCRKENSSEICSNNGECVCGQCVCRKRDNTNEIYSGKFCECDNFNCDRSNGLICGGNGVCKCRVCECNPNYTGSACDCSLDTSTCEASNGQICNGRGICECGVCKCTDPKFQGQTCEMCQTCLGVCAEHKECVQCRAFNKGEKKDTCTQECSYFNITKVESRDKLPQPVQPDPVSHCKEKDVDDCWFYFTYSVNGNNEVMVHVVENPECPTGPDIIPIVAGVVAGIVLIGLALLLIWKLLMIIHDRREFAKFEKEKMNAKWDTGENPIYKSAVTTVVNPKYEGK
Integrin alpha-5/beta-1, sequence (P08648 42-894 limits assumed): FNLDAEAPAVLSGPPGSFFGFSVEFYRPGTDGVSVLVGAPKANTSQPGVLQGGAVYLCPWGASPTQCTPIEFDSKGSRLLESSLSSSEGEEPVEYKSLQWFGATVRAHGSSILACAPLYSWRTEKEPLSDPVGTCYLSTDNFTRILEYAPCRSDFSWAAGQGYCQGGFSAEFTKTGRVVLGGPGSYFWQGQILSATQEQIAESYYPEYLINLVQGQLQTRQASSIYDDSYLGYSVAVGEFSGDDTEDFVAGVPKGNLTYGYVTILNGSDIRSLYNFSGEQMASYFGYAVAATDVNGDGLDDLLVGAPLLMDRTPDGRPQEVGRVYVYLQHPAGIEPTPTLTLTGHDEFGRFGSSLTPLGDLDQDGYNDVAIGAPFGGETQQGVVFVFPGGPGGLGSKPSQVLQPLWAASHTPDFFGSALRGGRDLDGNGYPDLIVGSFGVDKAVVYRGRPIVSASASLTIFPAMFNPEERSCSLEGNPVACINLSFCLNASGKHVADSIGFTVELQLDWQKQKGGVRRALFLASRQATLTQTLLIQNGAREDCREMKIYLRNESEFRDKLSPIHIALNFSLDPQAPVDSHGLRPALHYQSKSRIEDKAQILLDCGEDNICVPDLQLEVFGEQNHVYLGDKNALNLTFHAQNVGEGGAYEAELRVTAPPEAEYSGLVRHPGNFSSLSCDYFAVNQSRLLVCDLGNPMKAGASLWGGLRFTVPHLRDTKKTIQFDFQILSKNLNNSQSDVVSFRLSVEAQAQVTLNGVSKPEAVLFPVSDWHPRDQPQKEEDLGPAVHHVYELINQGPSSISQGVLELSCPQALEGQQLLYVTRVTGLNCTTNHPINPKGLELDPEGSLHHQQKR
Integrin alpha-5/beta-1, sequence (P08648 895-1049 limits assumed): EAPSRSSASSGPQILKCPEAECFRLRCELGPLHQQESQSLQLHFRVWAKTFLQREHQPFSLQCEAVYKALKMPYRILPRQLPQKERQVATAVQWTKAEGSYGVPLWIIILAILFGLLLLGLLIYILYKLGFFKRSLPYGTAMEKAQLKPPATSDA
Integrin alpha-M/beta-2, sequence (P05107 23-769 limits assumed, other chains not shown): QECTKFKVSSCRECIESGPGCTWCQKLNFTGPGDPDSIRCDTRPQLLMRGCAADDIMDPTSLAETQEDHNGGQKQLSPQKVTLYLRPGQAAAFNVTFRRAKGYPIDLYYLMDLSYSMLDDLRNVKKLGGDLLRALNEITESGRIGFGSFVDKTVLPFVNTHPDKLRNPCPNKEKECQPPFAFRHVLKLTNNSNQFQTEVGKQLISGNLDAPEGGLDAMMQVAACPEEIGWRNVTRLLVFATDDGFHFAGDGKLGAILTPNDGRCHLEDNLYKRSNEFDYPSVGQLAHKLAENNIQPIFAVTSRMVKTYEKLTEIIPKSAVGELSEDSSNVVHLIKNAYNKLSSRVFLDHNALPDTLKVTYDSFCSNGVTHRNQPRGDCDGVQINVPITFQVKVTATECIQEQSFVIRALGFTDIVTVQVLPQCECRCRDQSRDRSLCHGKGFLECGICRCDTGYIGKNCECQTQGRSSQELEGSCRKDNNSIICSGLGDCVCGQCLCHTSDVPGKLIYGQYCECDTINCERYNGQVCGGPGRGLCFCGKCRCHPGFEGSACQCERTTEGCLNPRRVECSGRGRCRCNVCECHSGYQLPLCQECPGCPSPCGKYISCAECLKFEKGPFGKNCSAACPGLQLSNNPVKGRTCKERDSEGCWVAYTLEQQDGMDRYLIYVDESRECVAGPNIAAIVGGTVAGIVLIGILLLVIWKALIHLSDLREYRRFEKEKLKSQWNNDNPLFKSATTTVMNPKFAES

SMILES | IC50 [1] [µM] | IC50 [2] [µM] | half-life [3] [h] | other results
COc1cccc(OC)c1COc1ccc(C[C@H](NC(=O)[C@H]2CSCN2C(C)=O)C(=O)O)cc1 | 0.002 | 0.04 | – | –
CC(=O)N1CSC[C@@H]1C(=O)N[C@@H](Cc1ccc(OCc2c(F)cccc2F)cc1)C(=O)O | 0.003 | 0.06 | – | –
CC(=O)N1CSC[C@H]1C(=O)N[C@@H](CSCCCNC(=O)C12CC3CC(CC(C3)C1)C2)C(=O)O | 0.09 | 8.04 | – | –
CC(=O)N1CSC[C@@H]1C(=O)N[C@@H](Cc1ccc(OC(=O)c2ccccc2)cc1)C(=O)O | 0.004 | 0.17 | 1.6 | –
CC(=O)N1CSC[C@@H]1C(=O)N[C@@H](Cc1ccc(OC(=O)C23CC4CC(CC(C4)C2)C3)cc1)C(=O)O | 0.012 | 0.14 | 2.3 | –
CC(=O)N1CSC[C@@H]1C(=O)N[C@@H](Cc1ccc(OC(=O)c2c(Cl)cccc2Cl)cc1)C(=O)O | 0.006 | 0.024 | > 12 | –
CC(=O)N1CSC[C@@H]1C(=O)N[C@@H](Cc1ccc(OCc2ccccc2C(F)(F)F)cc1)C(=O)O | 0.015 | 0.17 | – | –
CC(=O)N1CSC[C@@H]1C(=O)N[C@@H](Cc1ccc(OCc2c(Cl)cc(Cl)cc2Cl)cc1)C(=O)O | 0.009 | 0.035 | – | –
CC(=O)N1CSC[C@@H]1C(=O)N[C@@H](Cc1ccc(OCc2ccccc2)cc1)C(=O)O | 0.025 | 1.48 | > 12 | –
CC(=O)N1CSC[C@@H]1C(=O)N[C@@H](Cc1ccc(OCc2c(Cl)cccc2Cl)cc1)C(=O)O | 0.005 | 0.034 | > 12 | IC50 [4]: > 200 µM; IC50 [5]: > 400 µM; IC50 [6]: > 800 µM; IC50 [7]: 0.19 µM; IC50 [8]: > 800 µM; IC50 [9]: > 400 µM
CC(=O)N1CSC[C@@H]1C(=O)N[C@@H](Cc1ccc(OCc2cc(Cl)cc(Cl)c2)cc1)C(=O)O | 0.017 | 0.15 | – | –
CC(=O)N1CSC[C@H]1C(=O)N[C@@H](Cc1ccc(OCc2ccccc2)cc1)C(=O)O | 0.22 | 19.5 | – | –
CC(=O)N1CSC[C@H]1C(=O)N[C@@H](Cc1ccccc1)C(=O)O (Ac-[Thz]-Phe-OH) | 0.36 | 35.2 | – | –
COc1ccc(C[C@H](NC(=O)[C@@H]2CSCN2C(C)=O)C(=O)O)cc1 (Ac-[Thz]-Tyr(Me)-OH) | 0.31 | 76.6 | – | –
CC(=O)N1CSC[C@H]1C(=O)N[C@@H](Cc1ccc(O)cc1)C(=O)O (Ac-[Thz]-Tyr-OH) | 2.74 | 263 | – | –
